Experimental data taken from US10526327B2, “Histone demethylase inhibitors” (CELGENE QUANTICEL RESEARCH, INC., priority 2013, dated 2020).

Biological target: T1, Jarid1A (Homo sapiens, UniProt P29375)
T1 construct: purchased BPS Bioscience 50110
T1 sequence (P29375 1-1090): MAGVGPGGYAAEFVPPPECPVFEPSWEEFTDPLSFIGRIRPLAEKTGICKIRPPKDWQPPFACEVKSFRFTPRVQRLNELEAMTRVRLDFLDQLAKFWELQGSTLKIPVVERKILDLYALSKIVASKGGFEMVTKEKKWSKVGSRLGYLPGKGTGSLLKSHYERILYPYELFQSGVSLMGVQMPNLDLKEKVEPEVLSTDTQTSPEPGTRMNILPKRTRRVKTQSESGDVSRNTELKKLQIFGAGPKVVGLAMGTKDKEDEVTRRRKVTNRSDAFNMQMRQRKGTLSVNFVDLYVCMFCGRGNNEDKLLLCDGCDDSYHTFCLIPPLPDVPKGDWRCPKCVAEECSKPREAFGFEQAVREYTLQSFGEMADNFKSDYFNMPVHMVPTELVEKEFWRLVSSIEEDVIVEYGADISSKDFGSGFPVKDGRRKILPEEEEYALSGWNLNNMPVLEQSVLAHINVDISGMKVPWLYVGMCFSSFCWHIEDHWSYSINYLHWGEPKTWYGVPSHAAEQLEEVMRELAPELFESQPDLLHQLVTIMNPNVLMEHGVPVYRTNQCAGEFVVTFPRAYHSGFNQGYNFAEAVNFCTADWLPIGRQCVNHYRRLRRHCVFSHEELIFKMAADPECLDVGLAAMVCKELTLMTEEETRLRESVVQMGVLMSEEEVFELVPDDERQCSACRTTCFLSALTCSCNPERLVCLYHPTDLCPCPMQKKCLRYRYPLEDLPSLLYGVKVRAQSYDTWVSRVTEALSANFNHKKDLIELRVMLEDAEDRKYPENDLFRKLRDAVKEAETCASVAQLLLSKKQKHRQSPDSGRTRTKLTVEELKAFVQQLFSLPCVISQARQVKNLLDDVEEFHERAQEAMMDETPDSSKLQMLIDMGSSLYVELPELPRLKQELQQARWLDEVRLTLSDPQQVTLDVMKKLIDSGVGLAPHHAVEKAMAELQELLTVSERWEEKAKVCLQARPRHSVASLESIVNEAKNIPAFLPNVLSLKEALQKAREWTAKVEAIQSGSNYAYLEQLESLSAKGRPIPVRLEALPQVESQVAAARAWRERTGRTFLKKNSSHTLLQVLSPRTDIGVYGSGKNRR
Assay: Jarid1A in vitro enzyme inhibition assay (TR-FRET)
Format: biochemical
How it was run: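 Demethylation of 300 nM biotin-H3K4me3 peptide by 1 nM baculovirus-expressed Jarid1A (aa 1–1090) with 2 μM α-ketoglutarate, Fe(II) and ascorbate, pH 7.3, 30 min at room temperature. Stopped with EDTA; H3K4me1-2 product detected by TR-FRET (Eu anti-H3K4me1-2/streptavidin-APC). IC50 fitted from 665/615 ratio over 11-point dilutions.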

Row | SMILES | IC50
1 | O=S(=O)(C1CC1)N1CCC[C@H](n2cc(Oc3nc(O)c4ccncc4n3)cn2)C1 [Example 162, 2-({1-[(3S)-1-(cyclopropanesulfonyl)piperidin-3-yl]-1H-pyrazol-4-yl}oxy)pyrido[3,4-d]pyrimidin-4-ol] | ≤ 100 nM
2 | Oc1nc(OCCc2ccc(Cl)cc2)nc2cnccc12 [Example 174, 2-[2-(4-chlorophenyl)ethoxy]pyrido[3,4-d]pyrimidin-4-ol] | ≤ 100 nM
3 | O=S(=O)(c1ccccc1)N1CC[C@@H](n2cc(Oc3nc(O)c4ccncc4n3)cn2)C1 [Example 128, 2-({1-[(3R)-1-(benzenesulfonyl)pyrrolidin-3-yl]-1H-pyrazol-4-yl}oxy)pyrido[3,4-d]pyrimidin-4-ol] | ≤ 100 nM
4 | Oc1nc(Oc2ccc(Cl)c(Cl)c2)nc2cnccc12 [Example 114, 2-(3,4-dichlorophenoxy)pyrido[3,4-d]pyrimidin-4-ol] | 100 to 1000 nM
5 | N#CCC(=O)N1CCC[C@@H](n2cc(Oc3nc(O)c4ccncc4n3)cn2)C1 [Example 154, 3-[(3R)-3-[4-({4-hydroxypyrido[3,4-d]pyrimidin-2-yl}oxy)-1H-pyrazol-1-yl]piperidin-1-yl]-3-oxopropanenitrile] | ≤ 100 nM
6 | Oc1nc(Oc2cnn([C@H]3CCN(c4ccccc4F)C3)c2)nc2cnccc12 [Example 147, 2-({1-[(3S)-1-(2-fluorophenyl)pyrrolidin-3-yl]-1H-pyrazol-4-yl}oxy)pyrido[3,4-d]pyrimidin-4-ol] | ≤ 100 nM
7 | N#CCC(=O)N1CCC[C@H](n2cc(Oc3nc(O)c4ccncc4n3)cn2)C1 [Example 166, 3-[(3S)-3-[4-({4-hydroxypyrido[3,4-d]pyrimidin-2-yl}oxy)-1H-pyrazol-1-yl]piperidin-1-yl]-3-oxopropanenitrile] | ≤ 100 nM
8 | Oc1nc(Oc2cnn(Cc3ccccc3Cl)c2)nc2cnccc12 [Example 121, 2-({1-[(2-chlorophenyl)methyl]-1H-pyrazol-4-yl}oxy)pyrido[3,4-d]pyrimidin-4-ol] | ≤ 100 nM
9 | CC(Cc1ccccc1)Oc1nc(O)c2ccncc2n1 (stereo not drawn) [Example 19, 2-(1-phenylpropan-2-yloxy)pyrido[3,4-d]pyrimidin-4-ol] | 1000 to 10000 nM
10 | Cn1cnc(-c2nccc3c(O)nc(Oc4ccc(Cl)c(Cl)c4)nc23)c1 [Example 113, 2-(3,4-dichlorophenoxy)-8-(1-methyl-1H-imidazol-4-yl)pyrido[3,4-d]pyrimidin-4-ol] | ≤ 100 nM
11 | O=S(=O)(C1CC1)N1CCCC(n2cc(Oc3nc(O)c4ccncc4n3)cn2)C1 (stereo in doubt) [Example 151, 2-({1-[(3S)-1-(cyclopropanesulfonyl)piperidin-3-yl]-1H-pyrazol-4-yl}oxy)pyrido[3,4-d]pyrimidin-4-ol] | ≤ 100 nM
12 | O=C(C1CC1)N1CCC[C@H](n2cc(Oc3nc(O)c4ccncc4n3)cn2)C1 [Example 165, 2-({1-[(3S)-1-cyclopropanecarbonylpiperidin-3-yl]-1H-pyrazol-4-yl}oxy)pyrido[3,4-d]pyrimidin-4-ol] | ≤ 100 nM
13 | Oc1nc(Oc2cnn([C@@H]3CCCNC3)c2)nc2cnccc12 [Example 149, 2-({1-[(3R)-piperidin-3-yl]-1H-pyrazol-4-yl}oxy)pyrido[3,4-d]pyrimidin-4-ol] | ≤ 100 nM
14 | C[C@@H](c1ccccc1F)n1cc(Oc2nc(O)c3ccncc3n2)cn1 [Example 120, 2-({1-[(1s)-1-(2-fluorophenyl)ethyl]-1H-pyrazol-4-yl}oxy)pyrido[3,4-d]pyrimidin-4-ol] | ≤ 100 nM
15 | CCC(Oc1nc(O)c2ccnc(-c3cn(C)cn3)c2n1)C(F)(F)F (stereo not drawn) [Example 110, 8-(1-methyl-1H-imidazol-4-yl)-2-[(1,1,1-trifluorobutan-2-yl)oxy]pyrido[3,4-d]pyrimidin-4-ol] | 100 to 1000 nM
16 | O=C(c1ccccc1)N1CCC[C@H](n2cc(Oc3nc(O)c4ccncc4n3)cn2)C1 [Example 167, 2-({1-[(3S)-1-benzoylpiperidin-3-yl]-1H-pyrazol-4-yl}oxy)pyrido[3,4-d]pyrimidin-4-ol] | ≤ 100 nM
17 | O=C(c1ccccc1)N1CCC[C@@H](n2cc(Oc3nc(O)c4ccncc4n3)cn2)C1 [Example 157, 2-({1-[(3R)-1-benzoylpiperidin-3-yl]-1H-pyrazol-4-yl}oxy)pyrido[3,4-d]pyrimidin-4-ol] | ≤ 100 nM

Row | SMILES | IC50
18 | CC(=O)N1CC[C@H](n2cc(Oc3nc(O)c4ccncc4n3)cn2)C1 [Example 139, 1-[(3S)-3-[4-({4-hydroxypyrido[3,4-d]pyrimidin-2-yl}oxy)-1H-pyrazol-1-yl]pyrrolidin-1-yl]ethan-1-one] | ≤ 100 nM
19 | CCS(=O)(=O)N1CC[C@@H](n2cc(Oc3nc(O)c4ccncc4n3)cn2)C1 [Example 126, 2-({1-[(3R)-1-(ethanesulfonyl)pyrrolidin-3-yl]-1H-pyrazol-4-yl}oxy)pyrido[3,4-d]pyrimidin-4-ol] | ≤ 100 nM
20 | CC(=O)N1CC[C@@H](n2cc(Oc3nc(O)c4ccncc4n3)cn2)C1 [Example 129, 1-[(3R)-3-[4-({4-hydroxypyrido[3,4-d]pyrimidin-2-yl}oxy)-1H-pyrazol-1-yl]pyrrolidin-1-yl]ethan-1-one] | ≤ 100 nM
21 | Oc1nc(Oc2cnn([C@H]3CCNC3)c2)nc2cnccc12 [Example 135, 2-({1-[(3S)-pyrrolidin-3-yl]-1H-pyrazol-4-yl}oxy)pyrido[3,4-d]pyrimidin-4-ol] | 100 to 1000 nM
22 | CCC(c1ccccc1)n1cc(Oc2nc(O)c3ccncc3n2)cn1 (stereo not drawn) [Example 115, 2-{[1-(1-phenylpropyl)-1H-pyrazol-4-yl]oxy}pyrido[3,4-d]pyrimidin-4-ol] | ≤ 100 nM
23 | Oc1nc(Oc2cnn(C3CCCN(c4ccc(F)cc4)C3)c2)nc2cnccc12 (stereo in doubt) [Example 169, 2-({1-[(3R)-1-(4-fluorophenyl)piperidin-3-yl]-1H-pyrazol-4-yl}oxy)pyrido[3,4-d]pyrimidin-4-ol] | ≤ 100 nM
24 | Oc1nc(Oc2cnn(Cc3cccc(Cl)c3)c2)nc2cnccc12 [Example 122, 2-({1-[(3-chlorophenyl)methyl]-1H-pyrazol-4-yl}oxy)pyrido[3,4-d]pyrimidin-4-ol] | ≤ 100 nM
25 | O=S(=O)(c1ccccc1)N1CCC[C@H](n2cc(Oc3nc(O)c4ccncc4n3)cn2)C1 [Example 163, 2-({1-[(3S)-1-(benzenesulfonyl)piperidin-3-yl]-1H-pyrazol-4-yl}oxy)pyrido[3,4-d]pyrimidin-4-ol] | ≤ 100 nM
26 | O=C(c1ccccc1)N1CC[C@H](n2cc(Oc3nc(O)c4ccncc4n3)cn2)C1 [Example 142, 2-({1-[(3S)-1-benzoylpyrrolidin-3-yl]-1H-pyrazol-4-yl}oxy)pyrido[3,4-d]pyrimidin-4-ol] | ≤ 100 nM
27 | Cn1cnc(-c2nccc3c(O)nc(OCc4ccccc4C(F)(F)F)nc23)c1 [Example 107, 8-(1-methyl-1H-imidazol-4-yl)-2-{[2-(trifluoromethyl)phenyl]methoxy}pyrido[3,4-d]pyrimidin-4-ol] | 100 to 1000 nM
28 | CNCC(=O)N1CC[C@H](n2cc(Oc3nc(O)c4ccncc4n3)cn2)C1 [Example 144, 1-[(3S)-3-[4-({4-hydroxypyrido[3,4-d]pyrimidin-2-yl}oxy)-1H-pyrazol-1-yl]pyrrolidin-1-yl]-2-(methylamino)ethan-1-one] | ≤ 100 nM
29 | Oc1nc(Oc2cnn([C@@H]3CCCN(Cc4ccccc4)C3)c2)nc2cnccc12 [Example 158, 2-({1-[(3R)-1-benzylpiperidin-3-yl]-1H-pyrazol-4-yl}oxy)pyrido[3,4-d]pyrimidin-4-ol] | ≤ 100 nM
30 | Oc1nc(Oc2cnn([C@H]3CCCNC3)c2)nc2cnccc12 [Example 160, 2-({1-[(3S)-piperidin-3-yl]-1H-pyrazol-4-yl}oxy)pyrido[3,4-d]pyrimidin-4-ol] | ≤ 100 nM
31 | O=C(CO)N1CC[C@H](n2cc(Oc3nc(O)c4ccncc4n3)cn2)C1 [Example 155, 2-hydroxy-1-[(3S)-3-[4-({4-hydroxypyrido[3,4-d]pyrimidin-2-yl}oxy)-1H-pyrazol-1-yl]pyrrolidin-1-yl]ethan-1-one] | ≤ 100 nM
32 | C[C@H](c1ccccc1F)n1cc(Oc2nc(O)c3ccncc3n2)cn1 [Example 119, 2-({1-[(1R)-1-(2-fluorophenyl)ethyl]-1H-pyrazol-4-yl}oxy)pyrido[3,4-d]pyrimidin-4-ol] | ≤ 100 nM
33 | Oc1nc(OCc2c(Cl)cccc2Cl)nc2cnccc12 [Example 172, 2-[(2,6-dichlorophenyl)methoxy]pyrido[3,4-d]pyrimidin-4-ol] | 1000 to 10000 nM
